Assay [1] addresses T1, Adrenergic β1 (Homo sapiens, UniProt P08588).
T1 construct: Eurofins-Panlabs (contract screen) 204010
The assay can be described thus: SafetyScreen44 204010. The following applies: 10 μM; [125I]Cyanopindolol; recombinant. It is filed as binding. Here is the method:
(§1) A broad screen of 44 molecular targets (SafetyScreen44, Eurofins-Panlabs) for Ariadne were performed, which includes G protein-coupled receptors, steroid nuclear receptors, ion channels, neurotransmitter transporters, and metabolic and signaling enzymes. Only two molecular targets, 5-HT2A and 5-HT2B receptors, emerged above the positive hit threshold, defined as 50% displacement of standard radioligands by 10 uM concentration of Ariadne (FIG. 1b, and Table 1).
(§2) For species, “H”=human, “R”=rat. Test compound screened at all targets at concentration of 10 μM.

For assay [2], the target named is T2, Opiate δ1 (OP1, DOP) (Homo sapiens, UniProt P41143).
T2 construct: purchased Eurofins-Panlabs (contract screen SafetyScreen44) assay ID 260130
T2 sequence (P41143 whole entry): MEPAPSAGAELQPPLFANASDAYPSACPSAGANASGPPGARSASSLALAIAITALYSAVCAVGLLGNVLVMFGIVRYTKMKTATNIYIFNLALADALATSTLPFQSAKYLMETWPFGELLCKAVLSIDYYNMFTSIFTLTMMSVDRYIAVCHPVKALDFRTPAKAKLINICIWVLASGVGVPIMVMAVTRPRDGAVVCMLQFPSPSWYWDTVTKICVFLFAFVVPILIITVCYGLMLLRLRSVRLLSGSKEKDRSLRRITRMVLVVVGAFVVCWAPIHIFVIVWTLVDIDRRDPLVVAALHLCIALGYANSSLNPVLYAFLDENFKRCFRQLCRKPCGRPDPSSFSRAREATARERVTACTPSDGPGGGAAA
Briefly: SafetyScreen44 260130. It is filed as binding. The following applies: 10 μM; [3H]Naltrindole; recombinant. Here is the method:
as §1, §2

For assay [3], the target named is T3, Serotonin (5-Hydroxytryptamine) 5-HT3 (Homo sapiens, UniProt P46098).
T3 construct: purchased Eurofins-Panlabs (contract screen SafetyScreen44) assay ID 271910
Briefly: SafetyScreen44 271910. The following applies: 10 μM; [3H]GR-65630; recombinant. The format is binding. As for the experimental part: as §1, §2

For assay [4], the target named is T4, Cannabinoid CB2 (Homo sapiens, UniProt P34972).
T4 construct: Eurofins-Panlabs (contract screen) 217100
T4 sequence (P34972 whole entry): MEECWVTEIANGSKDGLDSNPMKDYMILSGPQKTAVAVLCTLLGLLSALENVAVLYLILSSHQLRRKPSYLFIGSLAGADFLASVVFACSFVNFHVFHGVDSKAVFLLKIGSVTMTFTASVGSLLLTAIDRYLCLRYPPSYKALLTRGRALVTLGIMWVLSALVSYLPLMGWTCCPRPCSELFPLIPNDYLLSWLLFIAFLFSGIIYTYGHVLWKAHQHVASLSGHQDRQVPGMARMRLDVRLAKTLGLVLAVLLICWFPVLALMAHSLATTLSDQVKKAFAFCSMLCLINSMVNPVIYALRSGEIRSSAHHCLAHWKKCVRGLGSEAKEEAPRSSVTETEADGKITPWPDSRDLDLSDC
The assay can be described thus: SafetyScreen44 217100. It is filed as binding. The following applies: 10 μM; [3H]WIN-55, 212-2; recombinant. Here is the method: as §1, §2

In assay [5] the test system is Sodium Channel, Site 2. The assay can be described thus: SafetyScreen44 279510. The following applies: 10 μM; [3H]Batrachotoxinin; recombinant. The format is binding, human. Here is the method: as §1, §2
Assay [6] addresses T5, Phosphodiesterase PDE4D2 (Homo sapiens, UniProt Q08499).
T5 construct: Eurofins-Panlabs (contract screen) 154420
The assay can be described thus: SafetyScreen44 154420. The format is biochemical. The following applies: 10 μM; FAM-cAMP; recombinant. Here is the method:
as §1, §2

The target of assay [7] is T6, Cholinesterase, Acetyl, ACES (Homo sapiens, UniProt P22303).
T6 construct: Eurofins-Panlabs (contract screen) 104010
T6 sequence (P22303 32-614): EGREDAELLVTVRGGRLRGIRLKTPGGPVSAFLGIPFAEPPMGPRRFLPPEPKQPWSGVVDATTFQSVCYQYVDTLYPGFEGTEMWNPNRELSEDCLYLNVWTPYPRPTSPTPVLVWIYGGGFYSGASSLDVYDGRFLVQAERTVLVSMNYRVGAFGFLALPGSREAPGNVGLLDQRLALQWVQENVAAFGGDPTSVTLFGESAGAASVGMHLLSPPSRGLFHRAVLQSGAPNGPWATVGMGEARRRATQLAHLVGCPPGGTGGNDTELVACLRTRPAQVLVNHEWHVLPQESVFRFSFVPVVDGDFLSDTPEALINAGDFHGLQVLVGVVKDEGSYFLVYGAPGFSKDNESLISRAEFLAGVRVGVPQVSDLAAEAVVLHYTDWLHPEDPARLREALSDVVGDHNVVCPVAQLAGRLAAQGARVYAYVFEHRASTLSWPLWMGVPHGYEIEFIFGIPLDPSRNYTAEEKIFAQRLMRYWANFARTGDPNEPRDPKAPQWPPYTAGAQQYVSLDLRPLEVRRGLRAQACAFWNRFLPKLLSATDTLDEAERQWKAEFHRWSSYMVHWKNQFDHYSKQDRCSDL
Briefly: SafetyScreen44 104010. The following applies: 10 μM; substrate Acetylthiocholine; recombinant. The format is biochemical. As for the experimental part:
as §1, §2

In assay [8] the target is T7, Endothelin ETA (Homo sapiens, UniProt P25101).
T7 construct: Eurofins-Panlabs (contract screen) 224010
The assay can be described thus: SafetyScreen44 224010. It is filed as binding. The following applies: 10 μM; [125I]Endothelin-1; recombinant. Here is the method:
as §1, §2

Assay [9] has as its system cats. The following applies: in comparison to (R)-DOM; cited from earlier work.
Assay [10] has as its target T8, Adrenergic alpha2A (Homo sapiens, UniProt P08913).
T8 construct: Eurofins-Panlabs (contract screen) 203630
The assay can be described thus: SafetyScreen44 203630. It is filed as binding. The following applies: 10 μM; [3H]Rauwolscine; recombinant. As for the experimental part:
as §1, §2

Assay [11] deals with T9, Adrenergic alpha1A (Homo sapiens, UniProt P35348).
T9 construct: Eurofins-Panlabs (contract screen) 203110
T9 sequence (P35348 whole entry): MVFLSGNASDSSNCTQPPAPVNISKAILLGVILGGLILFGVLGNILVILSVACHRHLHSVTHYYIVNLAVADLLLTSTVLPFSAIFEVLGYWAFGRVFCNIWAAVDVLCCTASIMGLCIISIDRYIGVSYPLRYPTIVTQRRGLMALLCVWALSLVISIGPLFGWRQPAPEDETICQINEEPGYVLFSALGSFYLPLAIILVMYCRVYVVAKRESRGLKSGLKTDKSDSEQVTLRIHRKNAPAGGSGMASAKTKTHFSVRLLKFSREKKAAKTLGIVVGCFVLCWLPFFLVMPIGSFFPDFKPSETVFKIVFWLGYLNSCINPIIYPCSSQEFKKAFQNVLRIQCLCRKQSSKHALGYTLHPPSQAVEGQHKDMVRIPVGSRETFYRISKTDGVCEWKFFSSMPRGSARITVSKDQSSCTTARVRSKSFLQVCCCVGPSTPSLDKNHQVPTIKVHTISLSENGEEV
The assay can be described thus: SafetyScreen44 203110. The format is binding. The following applies: 10 μM; [3H]Prazosin; recombinant. Here is the method: as §1, §2

Assay [12] deals with T10, Histamine H2 (Homo sapiens, UniProt P25021).
T10 construct: purchased Eurofins-Panlabs (contract screen SafetyScreen44) assay ID 239710
T10 sequence (P25021 whole entry): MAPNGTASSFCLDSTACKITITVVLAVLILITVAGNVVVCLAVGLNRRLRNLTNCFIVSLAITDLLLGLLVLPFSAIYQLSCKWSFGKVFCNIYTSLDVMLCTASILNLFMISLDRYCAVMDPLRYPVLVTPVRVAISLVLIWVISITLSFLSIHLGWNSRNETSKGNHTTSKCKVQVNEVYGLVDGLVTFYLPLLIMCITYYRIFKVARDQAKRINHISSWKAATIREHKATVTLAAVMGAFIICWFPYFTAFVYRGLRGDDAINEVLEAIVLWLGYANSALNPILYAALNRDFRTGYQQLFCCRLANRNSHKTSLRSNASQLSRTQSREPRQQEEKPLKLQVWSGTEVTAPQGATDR
The assay can be described thus: SafetyScreen44 239710. The format is binding. The following applies: 10 μM; [125I]Aminopotentidine; recombinant. As for the experimental part:
as §1, §2

The target in assay [13] is T11, Muscarinic M1 (Homo sapiens, UniProt P11229).
T11 construct: purchased Eurofins-Panlabs (contract screen SafetyScreen44) assay ID 252610
T11 sequence (P11229 whole entry): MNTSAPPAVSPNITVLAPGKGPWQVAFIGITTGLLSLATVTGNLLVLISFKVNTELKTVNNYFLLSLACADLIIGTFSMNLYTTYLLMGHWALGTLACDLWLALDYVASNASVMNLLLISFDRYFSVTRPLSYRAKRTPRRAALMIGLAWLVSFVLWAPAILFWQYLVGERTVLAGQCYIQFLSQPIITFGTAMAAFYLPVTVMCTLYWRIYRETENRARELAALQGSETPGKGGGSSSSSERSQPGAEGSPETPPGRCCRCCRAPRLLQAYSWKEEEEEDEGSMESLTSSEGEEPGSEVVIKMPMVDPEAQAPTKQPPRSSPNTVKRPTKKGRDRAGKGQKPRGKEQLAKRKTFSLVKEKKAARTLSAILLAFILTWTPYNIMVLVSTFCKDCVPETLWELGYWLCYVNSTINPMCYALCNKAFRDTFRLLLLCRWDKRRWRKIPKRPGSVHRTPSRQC
The assay can be described thus: SafetyScreen44 252610. The format is binding. The following applies: 10 μM; [3H]N-Methylscopolamine; recombinant. As for the experimental part:
as §1, §2

For assay [14], the target named is T12, Dopamine D1 (Homo sapiens, UniProt P21728).
T12 construct: Eurofins-Panlabs (contract screen) 219500
Briefly: SafetyScreen44 219500. The following applies: 10 μM; [3H]SCH-23390; recombinant. It is filed as binding. As for the experimental part: as §1, §2

For assay [15], the target named is T13, Opiate μ (OP3, MOP) (Homo sapiens, UniProt P35372).
T13 construct: purchased Eurofins-Panlabs (contract screen SafetyScreen44) assay ID 260410
Briefly: SafetyScreen44 260410. It is filed as binding. The following applies: 10 μM; [3H]Diprenorphine; recombinant. Here is the method: as §1, §2

Assay [16] deals with T14, Adrenergic β2 (Homo sapiens, UniProt P07550).
T14 construct: Eurofins-Panlabs (contract screen) 204110
Briefly: SafetyScreen44 204110. It is filed as binding. The following applies: 10 μM; [3H]CGP-12177; recombinant. Here is the method: as §1, §2

Assay [17] has as its target T15, Histamine H1 (Homo sapiens, UniProt P35367).
T15 construct: purchased Eurofins-Panlabs (contract screen SafetyScreen44) assay ID 239610
The assay can be described thus: SafetyScreen44 239610. It is filed as binding. The following applies: 10 μM; [3H]Pyrilamine; recombinant. As for the experimental part: as §1, §2

The target in assay [18] is T16, Nicotinic Acetylcholine alpha4beta2, Cytisine (Homo sapiens, UniProt P17787+P43681).
T16 construct: purchased Eurofins-Panlabs (contract screen SafetyScreen44) assay ID 299031
Briefly: SafetyScreen44 299031. It is filed as binding. The following applies: 10 μM; [3H]Cytisine; recombinant. Here is the method:
as §1, §2

Assay [19] has as its target T17, Vasopressin V1A (Homo sapiens, UniProt P37288).
T17 construct: purchased Eurofins-Panlabs (contract screen SafetyScreen44) assay ID 287530
The assay can be described thus: SafetyScreen44 287530. It is filed as binding. The following applies: 10 μM; [125I]Phenylacetyl Tyr(Me)PheGlnAsnArgProArgTyr; recombinant. As for the experimental part: as §1, §2

Assay [20] relates to rat smooth muscle. The following applies: compared to serotonin and (R)-DOM; cited from earlier work.
The target of assay [21] is T18, Cholecystokinin CCK1 (CCKA) (Homo sapiens, UniProt P32238).
T18 construct: Eurofins-Panlabs (contract screen) 218030
T18 sequence (P32238 whole entry): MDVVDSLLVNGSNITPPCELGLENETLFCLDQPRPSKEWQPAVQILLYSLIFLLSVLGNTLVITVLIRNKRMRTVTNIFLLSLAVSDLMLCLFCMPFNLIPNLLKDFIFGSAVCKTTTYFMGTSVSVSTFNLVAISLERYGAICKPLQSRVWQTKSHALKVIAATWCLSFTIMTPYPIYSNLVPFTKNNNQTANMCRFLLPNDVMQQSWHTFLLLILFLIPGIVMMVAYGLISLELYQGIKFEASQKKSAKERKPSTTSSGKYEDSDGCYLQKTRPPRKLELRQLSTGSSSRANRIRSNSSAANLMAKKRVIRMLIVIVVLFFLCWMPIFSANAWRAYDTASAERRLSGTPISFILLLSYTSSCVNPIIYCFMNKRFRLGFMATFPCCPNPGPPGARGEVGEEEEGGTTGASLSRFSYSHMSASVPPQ
Briefly: SafetyScreen44 218030. It is filed as binding. The following applies: 10 μM; [125I]CCK-8; recombinant. As for the experimental part:
as §1, §2

For assay [22], the target named is T19, Phosphodiesterase PDE3A (Homo sapiens, UniProt Q14432).
T19 construct: Eurofins-Panlabs (contract screen) 152300
Briefly: SafetyScreen44 152300. The format is biochemical. The following applies: 10 μM; FAM-cAMP; recombinant. Here is the method:
as §1, §2

Assay [23] concerns rats. The following applies: 10 mg/kg, s.c. or i.p.; absence of stimulant-like effects; cited from earlier work.
The test system of assay [24] is mice. Briefly: Novelty suppressed feeding (NSF). The following applies: 7 days post-drug administration; 10 mg/kg. It is filed as in vivo, mouse. As for the experimental part:
FIGS. 7A-D Effect of Ariadne in behavioral conflict paradigms. (a) Survival plot of effect of (R)-Ariadne (10 mg/kg) on latency to feed in the novelty suppressed feeding (NSF) test 7 days post a single drug administration. (b) Effect of 6 mg/kg and 10 mg/kg (R)-Ariadne on latency to feed in the novelty suppressed feeding (NSF) test 7 days post a single drug administration. (c) Effect of (R)-Ariadne and (±)-DOPR on the time spent in the open vs closed arms and (d) corresponding arm entries 30 minutes and 4 hours post a single subcutaneous injection.

Consider two compounds from patent publication US20260021061A1, “ARIADNE AND ANALOGS FOR THE TREATMENT OF NEUROLOGICAL AND NEUROMUSCLAR DISORDERS” (priority 2022, published 2026).

T8 sequence (P08913 whole entry): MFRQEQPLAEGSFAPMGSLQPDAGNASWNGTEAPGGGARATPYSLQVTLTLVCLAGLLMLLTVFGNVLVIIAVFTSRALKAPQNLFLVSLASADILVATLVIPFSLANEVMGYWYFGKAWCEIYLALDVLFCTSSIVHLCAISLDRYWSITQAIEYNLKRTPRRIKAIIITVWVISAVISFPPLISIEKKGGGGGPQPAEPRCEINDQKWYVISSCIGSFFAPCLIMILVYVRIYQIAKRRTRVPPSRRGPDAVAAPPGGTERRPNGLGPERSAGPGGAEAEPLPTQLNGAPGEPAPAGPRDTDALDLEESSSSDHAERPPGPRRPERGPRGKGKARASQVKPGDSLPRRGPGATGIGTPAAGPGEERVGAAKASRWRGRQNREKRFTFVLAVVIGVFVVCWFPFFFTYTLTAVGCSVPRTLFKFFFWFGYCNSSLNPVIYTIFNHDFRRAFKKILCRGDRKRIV
T15 sequence (P35367 whole entry): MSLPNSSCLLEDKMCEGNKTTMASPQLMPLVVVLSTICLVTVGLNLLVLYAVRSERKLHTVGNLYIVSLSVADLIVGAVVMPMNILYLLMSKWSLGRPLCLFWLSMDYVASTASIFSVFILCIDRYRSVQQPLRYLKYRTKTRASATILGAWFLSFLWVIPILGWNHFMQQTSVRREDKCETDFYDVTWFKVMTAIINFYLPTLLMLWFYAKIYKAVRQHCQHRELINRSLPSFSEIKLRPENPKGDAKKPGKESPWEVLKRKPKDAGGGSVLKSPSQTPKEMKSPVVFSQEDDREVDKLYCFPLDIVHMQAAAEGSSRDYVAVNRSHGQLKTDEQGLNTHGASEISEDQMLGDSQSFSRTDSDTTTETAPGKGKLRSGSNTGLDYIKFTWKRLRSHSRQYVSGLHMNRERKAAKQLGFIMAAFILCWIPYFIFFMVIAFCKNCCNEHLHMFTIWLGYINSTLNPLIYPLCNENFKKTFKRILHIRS
T5 sequence (Q08499 303-809 limits assumed): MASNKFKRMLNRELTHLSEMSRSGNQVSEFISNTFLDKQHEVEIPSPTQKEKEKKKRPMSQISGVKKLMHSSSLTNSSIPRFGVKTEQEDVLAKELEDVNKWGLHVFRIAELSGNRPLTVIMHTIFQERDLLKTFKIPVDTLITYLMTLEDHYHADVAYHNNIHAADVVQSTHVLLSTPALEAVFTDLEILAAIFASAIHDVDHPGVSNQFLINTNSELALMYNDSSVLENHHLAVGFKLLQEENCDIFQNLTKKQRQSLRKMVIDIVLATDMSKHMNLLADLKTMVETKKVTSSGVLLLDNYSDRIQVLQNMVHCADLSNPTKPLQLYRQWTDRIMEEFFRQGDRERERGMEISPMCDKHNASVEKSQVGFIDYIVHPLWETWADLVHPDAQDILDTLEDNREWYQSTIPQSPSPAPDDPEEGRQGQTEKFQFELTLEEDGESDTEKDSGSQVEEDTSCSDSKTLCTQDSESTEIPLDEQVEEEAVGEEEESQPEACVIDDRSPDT
T17 sequence (P37288 whole entry): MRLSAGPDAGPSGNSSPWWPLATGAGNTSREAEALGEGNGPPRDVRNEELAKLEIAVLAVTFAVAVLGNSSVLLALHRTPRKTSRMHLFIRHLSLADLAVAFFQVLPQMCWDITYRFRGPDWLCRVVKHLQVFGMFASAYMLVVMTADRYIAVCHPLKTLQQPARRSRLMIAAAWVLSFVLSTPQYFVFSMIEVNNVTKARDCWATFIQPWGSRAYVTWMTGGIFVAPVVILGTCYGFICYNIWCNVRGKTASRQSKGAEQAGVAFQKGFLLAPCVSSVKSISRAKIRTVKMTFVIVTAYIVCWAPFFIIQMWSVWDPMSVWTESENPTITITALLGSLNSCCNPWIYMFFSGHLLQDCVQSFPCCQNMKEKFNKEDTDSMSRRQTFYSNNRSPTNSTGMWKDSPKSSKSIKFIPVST

Take `CCC(N)Cc1cc(OC)c(C)cc1OC` (racemic) [Compound 32, 1-(2,5-dimethoxy-4-methylphenyl)butan-2-amine]: the “% Response” value is reported as 17% in assay [1]; 4% in assay [2]; −13% in assay [3]; −7% in [4]; 47% in assay [5]; −2% in assay [6]. Further, the “% Response” value in [7] is given as 12%; in [8], −6%; in assay [10], 34%; in assay [11], 24%; in assay [12], 21%; in assay [13], −4%. The “% Response” value in assay [14] is 7%; in [15], −11%; in [16], 22%; in [17] it was 13%; in assay [18], −31%; in [19], −5%. The “% Response” value is 3% in [21] and −4% in assay [22]. The “combined score of DOM-like behavioral features” value in assay [9] was “low combined score”. Also, the serotonergic-like effect entry in [20] is “weak serotonergic-like effect”.

On to `CC[C@@H](N)Cc1cc(OC)c(C)cc1OC` [(R)-Ariadne], for which the avoidance behavior entry in [23] is on record as “improved avoidance behavior”. Moreover, the “latency to bite the presented food pellets” value in [24] is listed as “dose-dependent trend toward reducing latency”.
